This is an account of results in patent US8946478B2, “Benzamide derivative with anticancer activity and preparation method and use thereof” (Zhejiang Hisun Pharmaceutical Co., Ltd., priority 2010, dated 2015).

The test system of experiment [1] is human breast cancer cell strain MDA-MB435. The experiment in a line: In vitro SRB tumor cell growth inhibition (GI50). Type of experiment: cell-based. Particulars: Homo sapiens, MDA-MB-435, 48 h, MDA-MB435 cells. The method, then:
(§1) Human colon cancer cell strains (Colo205 and HCT-116), human breast cancer cell strains (MCF-7 and MDA-MB435), human lung cancer cell strains (A549, 95D and NCI460), human ovarian cancer cell strains (OVCAR-5, OVCAR-8, HO8910 and SKOV-3), human leukemia (HL-60 and K562), human prostate cancer (DU145 and BXPC-3), human uterine cancer (Hela), human pancreatic cancer (PANC-1), human hepatoma (HepG 2) were all obtained from ATCC. Colo205, HL-60, K562 cells were cultured in RPMI 1640 containing 2 mM/L glutamine, 10% FBS, 1.0 mM sodium pyruvate. HCT-116, MCF-7, A549, 95D, HO8910, NCI460, OVCAR-5, OVCAR-8, DU145, BXPC-3, Hela, PANC-1, HepG2 cells were cultured in DMEM containing 2 mM/L glutamine, 10% FBS. MDA-MB435 cells were cultured in L-15 containing 2 mM/L glutamine, 10% FBS. SKOV-3 cells were cultured in McCoy's containing 2 mM/L glutamine, 10% FBS. Colo205, HL-60 and K562 cells were seeded in 96-well plates, 150 μL/well and 8000 cells/well, and the 96-well plates were pre-incubated in an incubator at 37° C. with 5% CO2, 100% relative humidity for 24 hours. HCT-116, MCF-7, NCI460, OVCAR-5, OVCAR-8, Hela, HepG 2 and MDA-MB435 cells were seeded in 96-well plates, 5000 cells/well; A549, 95D, HO8910, DU145, BXPC-3, PANC-1 and SKOV-3 cells were seeded in 96-well plates, 10000 cells/well, and the 96-well plates were pre-incubated in an incubator at 37° C. with 5% CO2, 100% relative humidity for 24 hours, to allow the cells to adhere.
(§2) 50 μL of pre-cooled 50% (mass/volume) TCA was added into the time zero control wells for each cell strain to fix the cells. To other wells, 50 μL of various concentrations of compounds were added, and maintained for 48 h, wherein each drug concentration was in triplicate, and there were blank control wells (cell culture medium without cells), drug-free control wells (with no drugs but the same volume of complete medium) and positive drug BSI-201 control wells, and the plates were incubated in an incubator at 37° C. with 5% CO2, full humidity (100% relative humidity) for 48 hours
(§3) 50 μL pre-cooled 50% (mass/volume) TCA was added onto the surface of the culture medium to fix the cells, which was then placed at 4° C. for 1 h. The supernatant was removed and each well was washed with deionized water for 5 times to remove TCA, serum proteins, etc. After dried in the air, about 100 μL enough amount of 0.4% SRB (formulated with 1% acetic acid) was added into each well, and was placed at room temperature for 20 to 30 min. Liquid in each well was discarded and each well was rapidly washed with 1% acetic acid for five times, to remove unbound dye until the unbound dye was completely rinsed clean. After dried in the air until the moisture was invisible, each well was added 200 μL Tris base to dissolve, shaken on a plate oscillator for 5 min or mixed by beating up and down with a pipette tip, and then measured on the multi-function instruction (M5 Detection System, MD Group Ltd.) with a detection wavelength of 515 nm, zero adjusted with 690 nm blank control.
(§4) The dose-response curve was plotted by XL-fit to determine the GI50 value.

The subject of another experiment is 18 tumor cell strains. The experiment in a line: In vitro efficacy screening, summary over the tumor cell strains. Type of experiment: cell-based, human. The note with it: in vitro screening; for inhibitory effects on tumor cell proliferation (in words): BSI-201 as positive drug. How it is done:
as §1, §2, §3, §4

The test system of experiment [2] is human breast cancer cell strain MCF-7. The experiment in a line: In vitro SRB tumor cell growth inhibition (GI50). Type of experiment: cell-based. The note with it: Homo sapiens, MCF7, 48 h, MCF-7 cells. The method, then: as §1, §2, §3, §4
Experiment [3] has as its system human colon cancer cell strain HCT-116. The experiment in a line: In vitro SRB tumor cell growth inhibition (GI50). It is filed as cell-based. The note with it: Homo sapiens, HCT-116, 48 h, HCT-116 cells. How it is done:
as §1, §2, §3, §4

The subject of experiment [4] is human lung cancer cell strain NCI-460. The experiment in a line: In vitro SRB tumor cell growth inhibition (GI50). Particulars: Homo sapiens, NCI-460, 48 h, NCI-460 cells. Type of experiment: cell-based. The method, then: as §1, §2, §3, §4
The subject of the next experiment is human leukemia HL-60. The experiment in a line: In vitro SRB tumor cell growth inhibition (GI50). It is filed as cell-based. The note with it: Homo sapiens, HL-60, 48 h, HL-60 cells. How it is done: as §1, §2, §3, §4
The subject of experiment [5] is human ovarian cancer cell strain OVCAR-8. The experiment in a line: In vitro SRB tumor cell growth inhibition (GI50). The note with it: Homo sapiens, OVCAR-8, 48 h, OVCAR-8 cells. It is filed as cell-based. The method, then: as §1, §2, §3, §4
Experiment [6] relates to human lung cancer cell strain 95D. The experiment in a line: In vitro SRB tumor cell growth inhibition (GI50). It is filed as cell-based. Particulars: Homo sapiens, 95-D, 48 h, 95D cells. How it is done:
as §1, §2, §3, §4

What is called GI50 is the concentration at which growth is held to half of that of the control. Turning to `C#Cc1ccc(C(=O)NC(=O)OCCC)cc1[N+](=O)[O-]` [Compound I-4, N-propoxycarbonyl-4-ethynyl-3-nitrobenzamide], the GI50 in experiment [1] turned out to be 12.6 µM. For the same molecule, in the experiment with 18 tumor cell strains, the “efficacy in inhibition of tumor cell proliferation, graded in words against I-1” value (“efficacy in inhibition” below) is reported as “good effects on inhibition of tumor cell proliferation” and the “inhibitory effects on tumor cell proliferation (in words)” value (“inhibitory effects” below) is given as “have inhibitory effects on tumor cell proliferation”.
`C#Cc1ccc(C(=O)NC(=O)OCCCC)cc1[N+](=O)[O-]` [Compound I-5, N-butoxycarbonyl-4-ethynyl-3-nitrobenzamide]: the concentration for 50% growth inhibition (GI50) in experiment [2] was determined as 10.1 µM; in experiment [3] it was 17.9 µM; in experiment [4], 20.1 µM. For the same molecule, the “efficacy in inhibition” value in the experiment with 18 tumor cell strains is “good effects on inhibition of tumor cell proliferation”. Moreover, the “inhibitory effects” value in the experiment with 18 tumor cell strains is given as “have inhibitory effects on tumor cell proliferation”.
Take `N#Cc1ccc(C(N)=O)cc1[N+](=O)[O-]` [Compound I-8, 4-cyano-3-nitrobenzamide]: it took 32.2 µM to inhibit growth in experiment [1] by half (GI50). In experiment [3], this molecule registered a concentration for 50% growth inhibition (GI50) of 13 µM. Moreover, in the experiment on 18 tumor cell strains, the “efficacy in inhibition” value was “good effects on inhibition of tumor cell proliferation” and the “inhibitory effects” value was “have inhibitory effects on tumor cell proliferation”.
On to `C#Cc1ccc(C(=O)NC)cc1[N+](=O)[O-]` [Compound I-9, N-methyl-4-ethynyl-3-nitrobenzamide], for which the GI50 was 6.7 µM in experiment [2], 22.5 µM in experiment [3], 9.71 µM with human leukemia HL-60 and 11.5 µM in experiment [4]. The “efficacy in inhibition” value with 18 tumor cell strains is “good effects on inhibition of tumor cell proliferation”. Further, in the experiment on 18 tumor cell strains, the “inhibitory effects” value is recorded as “have inhibitory effects on tumor cell proliferation”.
Turning to `C#Cc1ccc(C(=O)N(C)C)cc1[N+](=O)[O-]` [Compound I-10, N,N-dimethyl-4-ethynyl-3-nitrobenzamide], the GI50 in experiment [2] is 12.3 µM; in experiment [3], 18.3 µM; in the experiment with human leukemia HL-60 it was 3.78 µM; in experiment [4], 24.1 µM. Further, the “efficacy in inhibition” value with 18 tumor cell strains is “good effects on inhibition of tumor cell proliferation”. In addition, the “inhibitory effects” value in the experiment on 18 tumor cell strains is recorded as “have inhibitory effects on tumor cell proliferation”.
Regarding `C#Cc1ccc(C(=O)NC(C)=O)cc1[N+](=O)[O-]` [Compound I-11, N-acetyl-4-ethynyl-3-nitrobenzamide], the GI50 in experiment [2] was determined as 10.7 µM; in experiment [3], 12.1 µM; in the experiment with human leukemia HL-60, 2.35 µM; in experiment [4], 13.4 µM. The “efficacy in inhibition” value in the experiment on 18 tumor cell strains was “good effects on inhibition of tumor cell proliferation”. For the same molecule, the “inhibitory effects” value in the experiment with 18 tumor cell strains is listed as “have inhibitory effects on tumor cell proliferation”.
Molecule `CC#Cc1ccc(C(N)=O)cc1[N+](=O)[O-]` [Compound I-12, 4-(1-propynyl)-3-nitrobenzamide] returned a GI50 in the experiment on human leukemia HL-60 of 34.6 µM. For the same molecule, in the experiment on 18 tumor cell strains, the “efficacy in inhibition” value is reported as “good effects on inhibition of tumor cell proliferation” and the “inhibitory effects” value is on record as “have inhibitory effects on tumor cell proliferation”.
With `C#Cc1ccc(C(=O)NC(=O)c2ccccc2)cc1[N+](=O)[O-]` [Compound I-13, N-benzoyl-4-ethynyl-3-nitrobenzamide], it took 25.3 µM to inhibit growth in experiment [2] by half (GI50). This molecule showed a GI50 in experiment [1] of 6.24 µM. Besides, in the experiment with 18 tumor cell strains, the “efficacy in inhibition” value is “good effects on inhibition of tumor cell proliferation” and the “inhibitory effects” value is “have inhibitory effects on tumor cell proliferation”.
With `C#Cc1ccc(C(=O)N(CCCC)CCCC)cc1[N+](=O)[O-]` [Compound I-16, N,N-dibutyl-4-ethynyl-3-nitrobenzamide], the GI50 worked out at 8.21 µM in experiment [2], 12.9 µM in experiment [3], 1.27 µM in the experiment on human leukemia HL-60 and 15.5 µM in experiment [4]. In addition, the “efficacy in inhibition” value in the experiment with 18 tumor cell strains is recorded as “good effects on inhibition of tumor cell proliferation”. In the experiment on 18 tumor cell strains, the “inhibitory effects” value is “have inhibitory effects on tumor cell proliferation”.
Regarding `C#Cc1ccc(C(=O)NCCC)cc1[N+](=O)[O-]` [Compound I-18, N-propyl-4-ethynyl-3-nitrobenzamide], the GI50 in experiment [2] was 6.29 µM; in experiment [3], 9.45 µM; in the experiment on human leukemia HL-60, 4.86 µM; in experiment [4], 7.09 µM. Also, the “efficacy in inhibition” value in the experiment on 18 tumor cell strains is “good effects on inhibition of tumor cell proliferation”. In addition, in the experiment with 18 tumor cell strains, the “inhibitory effects” value was “have inhibitory effects on tumor cell proliferation”.
For the molecule `C#Cc1ccc(C(=O)NCCCC)cc1[N+](=O)[O-]` [Compound I-19, N-butyl-4-ethynyl-3-nitrobenzamide], the concentration for 50% growth inhibition (GI50) amounted to 9.59 µM in experiment [2], 9.01 µM in experiment [3], 5.15 µM in the experiment with human leukemia HL-60 and 10.1 µM in experiment [4]. Further, in the experiment with 18 tumor cell strains, the “efficacy in inhibition” value is recorded as “good effects on inhibition of tumor cell proliferation”. Further, the “inhibitory effects” value in the experiment with 18 tumor cell strains is “have inhibitory effects on tumor cell proliferation”.
In the case of `C#Cc1ccc(C(=O)N2CCOCC2)cc1[N+](=O)[O-]` [Compound I-22, (4-ethynyl-3-nitrophenyl)(morpholin-4-yl)ketone], the values for the GI50 in experiment [2] and in experiment [1] were 13.4 µM and 6.53 µM, respectively. In addition, in the experiment on 18 tumor cell strains, the “inhibitory effects” value is on record as “have inhibitory effects on tumor cell proliferation”.
Regarding `C#Cc1ccc(C(=O)N2CCC2)cc1[N+](=O)[O-]` [Compound I-25], the GI50 in experiment [2] is 9.5 µM; in experiment [3] it was 10.9 µM; in experiment [4], 27.7 µM; in experiment [5], 14.4 µM.
On to `CNC(=O)c1ccc(C#N)c([N+](=O)[O-])c1` [Compound I-27, N-methyl-4-cyano-3-nitrobenzamide], for which growth in experiment [2] was halved (GI50) at 31.6 µM. In experiment [1], it took 29.3 µM to inhibit growth by half (GI50). Further, in the experiment on 18 tumor cell strains, the “efficacy in inhibition” value was “good effects on inhibition of tumor cell proliferation” and the “inhibitory effects” value is “have inhibitory effects on tumor cell proliferation”.
With `C#Cc1ccc(C(N)=O)cc1N=O` [Compound I-28, 4-ethynyl-3-nitrosobenzamide], the concentration for 50% growth inhibition (GI50) in experiment [2] amounted to 9.78 µM; in experiment [6] it was 18.1 µM; in experiment [5], 17.2 µM. Further, the “efficacy in inhibition” value in the experiment on 18 tumor cell strains is reported as “good effects on inhibition of tumor cell proliferation”. In the experiment with 18 tumor cell strains, the “inhibitory effects” value is reported as “have inhibitory effects on tumor cell proliferation”.
